We go through 12 molecules from patent US20100009970A1, “COMPOSITIONS AND METHODS FOR TREATMENT OF VIRAL DISEASES” (Combinatorx (Singapore) Pte. Ltd., priority 2008, published 2010).

One series can be described thus: in vitro. The conditions noted are these: human, CC50 (uM) [SG].
Series [1] relates to Huh7 cells expressing a subgenomic RNA replicon of Con1 (genotype 1b) sequence origin. As to the kind of experiment: microbe, parasite or virus in culture. The conditions noted are these: Hepatitis C virus; for IC90: Huh-7; for IC50: Huh-7, read-out: IC50 (uM) [SG]; for Emax: Huh-7, read-out: Max Effect@CC30 (inhibition).

By IC90 is commonly meant the concentration at which the effect reaches the 90% level. Higher therefore signals weaker potency. In general, IC50 refers to the concentration that inhibits the measured activity by half. `CN[C@H]1CC[C@@H](c2ccc(Cl)c(Cl)c2)c2ccc(N(C)C(C)=O)cc21` [N-((5S,8S)-5-(3,4-dichlorophenyl)-8-(methylamino)-5,6,7,8-tetrahydronaphthalen-2-yl)-N-methylacetamide] returned a CC50 in “in vitro” of 14.6 µM. In series [1], it took 10.7 µM to reach the 90% level (IC90) and the IC50 was 3.79 µM.

`CSc1ccc(Oc2ccc(CNS(C)(=O)=O)cc2CN(C)C)cc1C` [Compound 17, N-(3-((dimethylamino)methyl)-4-(3-methyl-4-(methylthio)phenoxy)benzyl)methanesulfonamide]: the CC50 in the series “in vitro” is above 50 µM. Further, the IC50 in series [1] stood at 22.7 µM.

`CSc1ccc(Oc2ccc(S(N)(=O)=O)cc2CN2CCC[C@H]2CO)cc1C` [Compound 103, (S)-3-((2-(hydroxymethyl)pyrrolidin-1-yl)methyl)-4-(3-methyl-4-(methylthio)phenoxy)benzenesulfonamide] displayed a CC50 in “in vitro” above 50 µM. Further, in series [1], the IC90 stood at 17.6 µM and the IC50 was 6.88 µM.

Turning to `CN[C@H]1CC[C@@H](c2ccc(Cl)c(Cl)c2)c2ccc(C(N)=O)cc21` [Sertraline A ring carboxamide, (5S,8S)-5-(3,4-dichlorophenyl)-8-(methylamino)-5,6,7,8-tetrahydronaphthalene-2-carboxamide], the CC50 in “in vitro” came to 16.2 µM. Moreover, the IC50 in series [1] turned out to be 1.8 µM.

For `CNC1CCC(c2ccc(OC)cc2)c2ccccc21` (stereo not drawn) [Sertraline B-Ring Para-Methoxy, 4-(4-methoxyphenyl)-N-methyl-1,2,3,4-tetrahydronaphthalen-1-amine], the CC50 in the series “in vitro” stood at 51.1 µM. Besides, the IC50 in series [1] turned out to be 26.8 µM.

In turn, `CSc1ccc(Oc2ccc(S(N)(=O)=O)cc2CN2CCN(c3ccccc3)CC2)cc1C` [Compound 93, 4-(3-methyl-4-(methylthio)phenoxy)-3-((4-phenylpiperazin-1-yl)methyl)benzenesulfonamide] returned a CC50 in “in vitro” of 43.1 µM. Also, in series [1], the IC50 is 20.2 µM.

`Cc1cccc(Oc2ccc(S(N)(=O)=O)cc2CC(C)C)c1` [Compound 65, 3-isobutyl-4-(m-tolyloxy)benzenesulfonamide] returned a CC50 in “in vitro” above 50 µM. Moreover, in series [1], it took 50 µM to reach the 90% level (IC90) and the IC50 was 30.7 µM.

Consider `CSc1ccc(Oc2ccc(S(N)(=O)=O)cc2CNCCO)cc1C` [Compound 1, 3-((2-hydroxyethylamino)methyl)-4-(3-methyl-4-(methylthio)phenoxy)benzenesulfonamide], for which the CC50 in the series “in vitro” was above 50 µM. In series [1], the concentration for an effect of 90% (IC90) came out at 15 µM and the IC50 is 4.31 µM.

Turning to `CSc1ccc(Oc2ccc(S(N)(=O)=O)cc2CN2CCN(c3ccccc3F)CC2)cc1C` [Compound 87, 3-((4-(2-fluorophenyl)piperazin-1-yl)methyl)-4-(3-methyl-4-(methylthio)phenoxy)benzenesulfonamide], in “in vitro”, the CC50 was determined as 30.2 µM. In series [1], the IC50 is 23.5 µM.

`CC(C)C1CCC(c2ccc(Cl)c(Cl)c2)c2ccccc21` (stereo not drawn) [Isopropyl Sertraline, 1-(3,4-dichlorophenyl)-4-isopropyl-1,2,3,4-tetrahydronaphthalene] returned a CC50 in “in vitro” above 50 µM. In series [1], the IC90 came to 32.1 µM, the IC50 was determined as 9.25 ± 0.95 µM and the Emax was 97.96 ± 0.06%.

Regarding `CSc1ccc(Oc2ccc(Br)cc2CN(C)C)cc1` [Compound 41, 1-(5-bromo-2-(4-(methylthio)phenoxy)phenyl)-N,N-dimethylmethanamine], the CC50 in the series “in vitro” is above 50 µM. Also, in series [1], the IC90 worked out at 28.8 µM, the IC50 turned out to be 25.8 µM and the Emax is 94.7%.

Turning to `CSc1ccc(Oc2ccc(S(=O)(=O)Nc3ccccc3)cc2CN(C)C)cc1C` [Compound 49, 3-((dimethylamino)methyl)-4-(3-methyl-4-(methylthio)phenoxy)-N-phenylbenzenesulfonamide], the CC50 in the series “in vitro” is 10.8 µM. Also, in series [1], the IC50 was found to be 6.53 µM and the Emax was 15.3%.
